Source: patent publication US11051514B2, “Antifungal compounds” (Mycovia Pharmaceuticals, Inc., priority 2015, dated 2021)

Legend:
[1] = Log D partition coefficient, CHI method; type: physicochemical
Method: The Log D partition coefficient was measured using the CHI method.

[2] = Thermodynamic water solubility; type: physicochemical
[3] = tested on: Septoria tritici (SEPTTR); assay: Evaluation of fungicidal activity: leaf blotch of wheat, disease control on wheat seedlings; type: in vivo; conditions: for 3DC % control / 3DP % Control: wheat (variety Yuma) seedlings; for fungicidal activity against the fungi responsible for leaf blotch of wheat (Septoria tritici): in comparison with example 5 of U.S. Pat. No. 8,748,461
Method: Example 3: Evaluation of Fungicidal Activity: Leaf Blotch of Wheat (Mycosphaerella graminicola; Anamorph: Septoria tritici; Bayer code […]) Technical grades of materials were dissolved in acetone, which were then mixed with nine volumes of water containing 110 ppm Triton X-100. The fungicide solutions were applied onto wheat seedlings using an automated booth sprayer to run-off. All sprayed plants were allowed to air dry prior to further handling. Wheat plants (variety Yuma) were grown from seed in a greenhouse in 50% mineral soil/50% soil-less Metro mix until the first leaf was fully emerged, with 7-10 seedlings per pot. These plants were inoculated with an aqueous spore suspension of Septoria tritici either prior to or after fungicide treatments. After inoculation the plants were kept in 100% relative humidity (one day in a dark dew chamber followed by two to three days in a lighted dew chamber at 20° C.) to permit spores to germinate and infect the leaf. The plants were then transferred to a greenhouse set at 20° C. for disease to develop. When disease symptoms were fully expressed on the 1st leaves of untreated plants, infection levels were assessed on a scale of 0 to 100 percent disease severity. Percent disease control was calculated using the ratio of disease severity on treated plants relative to untreated plants.

Row | SMILES | chromatographic logD [1] | H2O solubility (ppm) (thermodynamic) [2] | 3DC % control ([3]; 6.25 g/ha) [%] | 3DC % control ([3]; 25 g/ha) [%] | 3DC % control ([3]; 100 g/ha) [%] | 3DC % control ([3]; rate g/ha) [%] | 3DP % Control ([3]; 1.56 g/ha) [%] | 3DP % Control ([3]; 6.25 g/ha) [%] | 3DP % Control ([3]; 25 g/ha) [%] | 3DP % Control ([3]; 100 g/ha) [%] | fungicidal activity against the fungi responsible for leaf blotch of wheat (Septoria tritici) [3]
1 | N#Cc1ccc(Oc2ccc(C(F)(F)C(O)(Cn3cncn3)c3ccc(F)cc3F)nc2)cc1 (stereo not drawn) [Example 1, 4-((6-(2-(2,4-difluorophenyl)-1,1-difluoro-2-hydroxy-3-(1H-1,2,4-triazol-1-yl)propyl)pyridin-3-yl)oxy)benzonitrile] | 2.9 | 37.33 | 100 | 100 | 100 | 99 | 96 | 96 | 96 | 100 | improved fungicidal activity
2 | N#Cc1ccc(Oc2ccc(C(F)(F)C(O)(Cn3ncnc3S)c3ccc(F)cc3F)nc2)cc1 (stereo not drawn) [Example 2, 4-((6-(2-(2,4-difluorophenyl)-1,1-difluoro-2-hydroxy-3-(5-thioxo-4,5-dihydro-1H-1,2,4-triazol-1-yl)propyl)pyridin-3-yl)oxy)benzonitrile] | 2.83 | 23.04 | 94 | 99 | 100 | 80 | 94 | 98 | 100 | 100 | improved fungicidal activity
3 | N#Cc1ccc(Oc2ccc(C(F)(F)C(O)(Cn3cnnn3)c3ccc(F)cc3F)nc2)cc1 (stereo not drawn) [Example 5*, 4-(6-(2-(2,4-difluorophenyl)-1,1-difluoro-2-hydroxy-3-(1H-tetrazol-1-yl)propyl)pyridin-3-yloxy)benzonitile, reference compound] | 3.02 | 28.39 | 34 | 47 | 58 | 22 | 22 | 36 | 50 | 64 | –
4 | OC(Cn1cncn1)(c1ccc(F)cc1F)C(F)(F)c1ccc(OCc2cccc(F)c2F)cn1 (stereo not drawn) [Example 45*, reference compound] | 3.32 | 5.15 | 86 | 85 | 86 | 78 | 58 | 89 | 93 | 95 | –
